# Measured values reported in ChEMBL document CHEMBL1124856, “Extension of a redox-based chemical delivery system to alpha, beta-unsaturated ketones” (J Med Chem, 1990).
# “And” between values parts separate entries of the source, which are not always exact repeats. Equal values may be shown once.
# Legend:
# Homo sapiens [1] = species: Homo sapiens; assay: Half-life for the disappearance in whole human blood; Stable; type: ADME, organism-based; details: in vitro
# Rattus norvegicus [2] = species: Rattus norvegicus; assay: In vitro rate constant, correlation coefficient for the disappearance in rat liver homogenate; type: ADME
# Rattus norvegicus [3] = species: Rattus norvegicus; assay: In vitro rate constant, correlation coefficient for the disappearance in rat brain homogenate; type: ADME
# Homo sapiens [4] = species: Homo sapiens; assay: In vitro rate constant, correlation coefficient for the disappearance in whole human blood; Stable
# [5] = Half-life for the disappearance in rat liver homogenate; type: ADME
# [6] = Half-life for the disappearance in rat brain homogenate; type: ADME
# Rattus norvegicus [7] = species: Rattus norvegicus; assay: In vitro rate constant, correlation coefficient for the conversion to progesterone in rat liver homogenate; type: ADME
# Rattus norvegicus [8] = species: Rattus norvegicus; assay: In vitro rate constant, correlation coefficient for the conversion to progesterone in whole rat blood.; type: ADME, organism-based
T1/2 (Homo sapiens [1]),Correlation coefficient (Rattus norvegicus [2]),Correlation coefficient (Rattus norvegicus [3]),T1/2 (Homo sapiens [4]),half-life [5] [h],half-life [6] [h],Correlation coefficient (Rattus norvegicus [7]),Correlation coefficient (Rattus norvegicus [8]),Structure (SMILES)
Stable,0.999,0.98,Stable,0.267,1.77,–,–,CC(=O)C1CCC2C3CC=C4C=C(OC(=O)C5=CN(C)C=CC5)CCC4(C)C3CCC12C (stereo not drawn)
–,–,–,–,–,–,0.996 and 0.994,0.998,CC(=O)C1CCC2C3CC=C4C=C(OC(=O)c5ccc[n+](C)c5)CCC4(C)C3CCC12C.[I-] (stereo not drawn)
